For experiment [1], the system named is mice. As to the kind of experiment: phenyl-benzoquinone (PBQ) writhing test. In kind it is in vivo, mouse. The method, then:
(§1) Two compounds, N-(4-aminophenethyl)-1,2,3,4-tetrahydro-6,7-dimethoxy-1-methylisoquinoline(Compound No. 1) and its N-methyl derivative (Compound No. 2) were tested for analgesic activity in rats and mice by the oral and subcutaneous routes. In addition, gross behavioral and toxicological effects (as well as general pharmacological profiling) were evaluated in mice by the intraperitoneal route of administration.
In mice, two test procedures designed to detect analgesic activity were used: the phenyl-benzoquinone (PBQ) writhing test and the hot plate test. […] […] In the hot plate test, subjects were placed on the surface of a hot copper plate maintained at 54.5°±1.0° C. For the oral studies drugs were injected 30 minutes before testing on the hot plate. Drugged animals whose reaction time (consisting of paw licking or jumping behavior) was equal to or greater than 2 seconds over the average of an untreated control group of mice were considered to be protected from the pain.
(In writhing tests, fewer writhes than in controls are read as antinociception.)

The conditions of experiment [2]: literature, Medicinal Chemistry, Vol. 5; cited from earlier work.
Experiment [3] has as its system mice. As to the kind of experiment: hot plate test in mice. In kind it is in vivo. The following applies: po, 0.5 h; mouse, p.o., 30 minutes before testing, 54.5°±1.0° C.; read-out: ED50 (95% C.L.), Mouse Hot Plate. As to the method:
as §1
In mice, two test procedures designed to detect analgesic activity were used: the phenyl-benzoquinone (PBQ) writhing test and the hot plate test. In the PBQ procedure, the drugs were injected 15 minutes before an intraperitoneal injection of PBQ was made for the subcutaneous studies and 30 minutes before the PBQ for the oral studies. […] In the hot plate test, subjects were placed on the surface of a hot copper plate maintained at 54.5°±1.0° C. For the oral studies drugs were injected 30 minutes before testing on the hot plate. Drugged animals whose reaction time (consisting of paw licking or jumping behavior) was equal to or greater than 2 seconds over the average of an untreated control group of mice were considered to be protected from the pain.
A general note: Thermal pain tests record how soon the animal reacts.

Experiment [4] has as its system rats. As to the kind of experiment: tail flick test in rats. In kind it is in vivo. Particulars: po, 1 h; rat, p.o., 60 minute post dose interval; read-out: ED50 (95% C.L.), Rat Tail Flick. As to the method: as §1
In rats, two procedures designed to detect anlgesic acitivity were used: the hot plate test and the tail flick test. In the hot plate test, rats were placed on the surface of a copper plate maintained at 54.5°±1.0° C. and their response latency (again consisting of paw licking or jumping behavior) determined at 60 minutes and again at 30 minutes before drug injection. These response times were again determined 30 and 60 minutes after drug injection and animals whose response latencies were equal to or greater than three seconds over the second pre-treatment trial (i.e., the one done 30 minutes before dosing) were considered protected from the pain. In the tail flick procedure, a high intensity light beam was focused on the blackened portion of the rat's tail and the reaction time, i.e., latency to move its tail, was measured before and 15, 30, 45, 60, 90 and 120 minutes after drug administration. […]

Experiment [5] deals with rats. In words: hot plate test in rats. In kind it is in vivo. The following applies: 1 h, rat, 60 minute post dose interval, 54.5°±1.0° C., read-out: ED50 (95% C.L.), Rat Hot Plate. The method, then: as §1
In rats, two procedures designed to detect anlgesic acitivity were used: the hot plate test and the tail flick test. In the hot plate test, rats were placed on the surface of a copper plate maintained at 54.5°±1.0° C. and their response latency (again consisting of paw licking or jumping behavior) determined at 60 minutes and again at 30 minutes before drug injection. These response times were again determined 30 and 60 minutes after drug injection and animals whose response latencies were equal to or greater than three seconds over the second pre-treatment trial (i.e., the one done 30 minutes before dosing) were considered protected from the pain. In the tail flick procedure, a high intensity light beam was focused on the blackened portion of the rat's tail and the reaction time, i.e., latency to move its tail, was measured before and 15, 30, 45, 60, 90 and 120 minutes after drug administration. A subject was considered protected from the pain stimulus when Po ≥Pr +Pr 2 where Po is the individual post treatment value and Pr, the pretreatment value. The ED50's reported below for both of these procedures were calculated from values obtained at the 60 minute post dose interval.

Setting [6] is: sc, 0.25 h, mouse PBQ assay, s.c., 15 min post dose, table 6, read-out: Analgesic activity, s.c. ED50 at 15 min post dose.
Where [7] appears, read: sc, 0.75 h, mouse PBQ assay, s.c., 45 min post dose, table 6, read-out: Analgesic activity, s.c. ED50 at 45 min post dose.
[8] abbreviates: po, 0.5 h, mouse, p.o., drug 30 minutes before PBQ, read-out: ED50 (95% C.L.), Mouse PBQ.
The mark [9] stands for this setting: sc, 0.25 h, mouse, s.c., drug 15 minutes before PBQ, table 5, read-out: ED50 (95% C.L.), Mouse PBQ.

Each structure is given as a SMILES string. Where a name gives a salt, the structure may show the parent alone.

One may read the ED50 as the midpoint of the dose-response relation. Take `COc1cc2c(cc1OC)CN(CCc1ccc(O)cc1)CC2.Cl` [Example 13, N-(4-Hydroxyphenethyl)-1,2,3,4-tetrahydro-6,7-dimethoxyisoquinoline hydrochloride]: the ED50 in the experiment with mice [1] (setting [6]) came to 2.8 mg/kg; in the experiment with mice [1] (setting [7]), 22.4 mg/kg.

As for `COc1cc2c(cc1OC)C(C)N(CCc1ccc(Cl)cc1)CC2` (stereo not drawn), the “analgesic properties / activity reported by Brossi et al” value in experiment [2] is given as “reported not to exhibit analgesic properties”.

In the case of `CNc1ccc(CCN2CCc3cc(OC)ccc3C2C)cc1.Cl` (stereo not drawn) [Example 11, N-(4-Methylaminophenethyl)-1,2,3,4-tetrahydro-6-methoxy-1-methylisoquinoline hydrochloride], the ED50 stood at 6 mg/kg in the experiment on mice [1] (setting [6]) and 13.8 mg/kg in the experiment with mice [1] (setting [7]).

Take `CC1c2cc(O)c(O)cc2CCN1CCc1ccc(N)cc1` (stereo not drawn) [Example 15, N-(4-Aminophenethyl)-1,2,3,4-tetrahydro-6,7-dihydroxy-1-methylisoquinolinedihydrobromide]: the ED50 in the experiment with mice [1] (setting [6]) was 25.4 mg/kg; in the experiment with mice [1] (setting [7]), roughly 100 mg/kg.

Take `COc1cc2c(cc1O)CCN(CCc1ccc(N)cc1)C2C.Cl.Cl` (stereo not drawn) [Example 14, N-(4-Aminophenethyl)-1,2,3,4-tetrahydro-6-hydroxy-7-methoxy-1-methylisoquinoline dihydrochloride]: the ED50 in the experiment with mice [1] (setting [6]) turned out to be 7.3 mg/kg; with mice [1] (setting [7]), 25.8 mg/kg.

For `COc1cc2c(cc1OC)C(C)N(CCc1ccc(NC(C)=O)cc1)CC2.Cl` (stereo not drawn) [Example 6, N-(4-Acetamidophenethyl)-1,2,3,4-tetrahydro-6,7-dimethoxy-1-methylisoquinoline hydrochloride], the values for the ED50 with mice [1] (setting [6]) and with mice [1] (setting [7]) were 21 mg/kg and 31.6 to 56.2 mg/kg, respectively.

Turning to `COc1cc2c(cc1OC)C(C)N(CCc1ccc(O)cc1)CC2.Cl` (stereo not drawn) [Example 12, N-(4-Hydroxyphenethyl)-1,2,3,4-tetrahydro-6,7-dimethoxy-1-methylisoquinoline hydrochloride], the 50% effective dose (ED50) in the experiment on mice [1] (setting [6]) was 5.8 mg/kg; in the experiment on mice [1] (setting [7]), 10 to 31.6 mg/kg.

`COc1cc2c(cc1OC)C(C)N(CCc1ccc(N)cc1)CC2` (stereo not drawn) [Example 1, N-(4-aminophenethyl)-1,2,3,4-tetrahydro-6,7-dimethoxy-1-methylisoquinoline]: the 50% effective dose (ED50) was 48.5 mg/kg in the experiment on mice [1] (setting [8]); 7 mg/kg in the experiment on mice [1] (setting [6]); 3.7 mg/kg in the experiment on mice [1] (setting [9]); 24.2 mg/kg in the experiment with mice [1] (setting [7]); 25.7 mg/kg in the experiment with mice [3]; roughly 31.6 mg/kg in the experiment with rats [4]. Also, the ED50 was 30 to 60 mg/kg in the experiment with rats [5] (po, p.o.) and 35.7 mg/kg with rats [5] (sc, s.c.).

As to `CNc1ccc(CCN2CCc3cc(OC)c(OC)cc3C2C)cc1.Cl` (stereo not drawn) [Example 2, N-(4-Methylaminophenethyl)-1,2,3,4-tetrahydro-6,7-dimethoxy-1-methylisoquinoline hydrochloride], the ED50 in the experiment with mice [1] (setting [8]) is 42.8 mg/kg; in the experiment on mice [1] (setting [9]), 5.2 mg/kg; in the experiment with mice [3], 31.7 mg/kg; in the experiment with rats [4], 30 to 60 mg/kg; in the experiment with rats [5] (po, p.o.), roughly 17.8 mg/kg.

Regarding `COc1cc2c(cc1OC)C(C)N(CCc1ccc(N(C)C)cc1)CC2.Cl.Cl` (stereo not drawn) [Example 5, N-(4-Dimethylaminophenethyl)-1,2,3,4-tetrahydro-6,7-dimethoxy-1-methylisoquinoline dihydrochloride], the values for the ED50 in the experiment with mice [1] (setting [6]) and with mice [1] (setting [7]) were 27.3 mg/kg and 26.7 mg/kg, respectively.

For `COc1cc2c(cc1OC)C(C)N(CCc1ccccc1N)CC2` (stereo not drawn) [Example 4, N-(2-Aminophenethyl-1,2,3,4-tetrahydro-6,7-dimethoxy-1-methylisoquinolinedihydrochloride], the 50% effective dose (ED50) with mice [1] (setting [6]) is 10.7 mg/kg; in the experiment on mice [1] (setting [7]) it was 34 mg/kg.

For the compound `COc1cc2c(cc1OC)CN(CCc1ccc(N)cc1)CC2.Cl.Cl` [Example 8, N-(4-Aminophenethyl)-1,2,3,4-tetrahydro-6,7-dimethoxyisoquinoline dihydrochloride], the ED50 with mice [1] (setting [6]) stood at 2.9 mg/kg; in the experiment on mice [1] (setting [7]), 16.2 mg/kg.

On to `COc1ccc2c(c1)CCN(CCc1ccc([N+](=O)[O-])cc1)C2C.Cl.Cl` (stereo not drawn) [Example 9, N-(4-Nitrophenethyl)-1,2,3,4-tetrahydro-6-methoxy-1-methylisoquinoline dihydrochloride], for which the figures for the ED50 in the experiment with mice [1] (setting [6]) and in the experiment with mice [1] (setting [7]) were 10.4 mg/kg and 16.4 mg/kg, respectively.

For `COc1ccc2c(c1)CCN(CCc1ccc(N)cc1)C2C.Cl.Cl` (stereo not drawn) [Example 10, N-(4-Aminophenethyl)-1,2,3,4-tetrahydro-6-methoxy-1-methyl-isoquinoline dihydrochloride], the values for the ED50 in the experiment with mice [1] (setting [6]) and with mice [1] (setting [7]) were 6.5 mg/kg and 11.8 mg/kg, respectively.

Turning to `COc1cc2c(cc1OC)C(C)N(CCc1cccc(N)c1)CC2.Cl.Cl` (stereo not drawn) [Example 3, N-(3-Aminophenethyl)-1,2,3,4-tetrahydro-6,7-dimethoxy-1-methylisoquinoline dihydrochloride], the ED50 came out at 11.9 mg/kg in the experiment on mice [1] (setting [6]) and 20.2 mg/kg in the experiment with mice [1] (setting [7]).

With `COc1ccc2c(c1)CCN(CCc1ccc(NC=O)cc1)C2C` (stereo not drawn) [Example 11 (N--Formyl), N-(4-Formamidophenethyl)-1,2,3,4-tetrahydro-6-methoxy-1-methylisoquinoline], the ED50 with mice [1] (setting [6]) is 3.5 mg/kg; in the experiment with mice [1] (setting [7]), 15.3 mg/kg.

`COc1cc2c(cc1OC)CN(CCc1ccc([N+](=O)[O-])cc1)CC2.Cl` [Example 7, N-(4-Nitrophenethyl)-1,2,3,4-tetrahydro-6,7-dimethoxyisoquinoline hydrochloride]: the ED50 worked out at 9 mg/kg in the experiment on mice [1] (setting [6]) and 34 mg/kg in the experiment with mice [1] (setting [7]).
